Reference: patent publication US12116371B2, “Substituted pyridines as irreversible inhibitors of menin-MLL interaction” (BIOMEA FUSION, INC., priority 2018, dated 2024)
Read-outs that look alike come from different tables or passages of the source.

Key:
[1] = test system: KG-1 cells; assay: Long term proliferation assay, Cell Titer-Glo read-out; format: cell-based; settings: for IC50: Homo sapiens
Protocol: (§1) Compounds of invention are tested in the 5 suspension lines by 14-day long-term proliferation assay.
(§2) The compound is tested in 10-pt dose titration (client will determine the starting concentration and the dilution scheme) and the final DMSO concentration is kept at 0.2%.
(§3) On Day 0, in a flat bottom 96-well plate, add 100 μL of cells per well at the densities optimized. Prepare compounds in DMSO at 500× final concentration. Dilute the compounds with DMSO at the dilution. Dilute the compounds in media at 3× final concentration. Add 50 μL of compound or DMSO at 3× final concentration to each well. Final volume in each well is 150 μL, and final concentration of DMSO is 0.2%. Also include 3 untreated control wells, by adding 50 μL of media alone. Incubate plates for 96 hours.
(§4) To do this take the total viable cell count calculated using step: • 1. Take the average of the replicates for each dose in order to be used in splitting the cells. • 2. Use a 96 well V-bottom plate to spin down the cells to remove old media and compound to split the cells. • 3. Based on the split ratio place the proper amount of media and cells into the V-bottom plate, and spin the plate at 1100 rpm for 5 minutes. • 4. Following the spin remove the media, careful not to disturb the cell pellet. Re-suspend pellet in 100 μL fresh media, and add to a new 96-well flat bottom plate. • 5. Add fresh compound, in the same manner as Step 3). • 6. Incubate plates for 72 hours. Repeat steps 5)-10) on Day 7. • 7. Incubate plates for 96 hours. Repeat Step 5)-10) on Day 11. • 8. Incubate 72 hours and repeat step 5) to take a final count. • 9. Data Analysis
(§5) To calculate growth for days 4, 7, 11, and 14: • 1. Calculate the split factor for day 4 to 7, day 7 to 11, and day 11-14. The split factor is the viable cells/mL on Day X (either 4, 7 or 11) divided by the density the cells are being split back to. • 2. For growth of cells from day 4 to 7, multiply the day 7 viable cells/mL density by the split factor from day 4. • 3. For growth of cells from day 7 to 11, multiply the day 11 viable cells/mL density by the days 4, and 7 split factors. • 4. For growth of cells from Day 11 to 14, multiply the Day 14 viable cells/mL density by the days 4, 7, and 11 split factors. • 5. Plot growth on semi-log chart (viable cells/mL on Y axis, in log, and days on X axis). • 6. The growth inhibition was calculated with the formula ((untreated cell numbers-treated cell numbers)/untreated cell)). • 7. Calculate the IC50 for each compound in each line using XLFit (Sigmoidal Dose-Response Model, y=(Bottom+((Top-Bottom)/(1+((IC50/×)^Hill))))).

[2] = test system: OCI-AML-3 cells; assay: as above; format: cell-based; settings: for IC50: Homo sapiens; for % max: OCI-AML3
Protocol: as §1, §2, §3, §4, §5

[3] = test system: MOLM-13 cells; assay: Long term proliferation assay, InCell read-out; format: cell-based, human; settings: for IC50: Homo sapiens
Protocol: as §1, §2, §3, §4, §5

[4] = test system: MV4-11 cells; assay: Long term proliferation assay, InCell read-out; format: cell-based, human; settings: for IC50: Homo sapiens
Protocol: as §1, §2, §3, §4, §5

[5] = test system: SK-LU-1 cells; assay: Proliferation assay, cells in adhesion; format: cell-based; settings: for IC50: Homo sapiens
[6] = test system: SK-LU-1/AMG510 cells; assay: Proliferation assay, cells in adhesion; format: cell-based; settings: for IC50: Homo sapiens

Work on C=CC(=O)NC1CCCN(Cc2ccnc(C(=O)Nc3ccc(-c4cc5c(N6CCOCC6)ncnc5[nH]4)cc3)c2)C1 (stereo not shown) [Compound 10] yielded an IC50 ([1]; 96 h, Day 4, Cell Titer-Glo, read-out: Day 4 IC50) of 0.47 µM, an IC50 ([1]; 168 h, Day 7, Cell Titer-Glo, read-out: Day 7 IC50) of 0.33 µM and an IC50 ([1]; 264 h, Day 11, Cell Titer-Glo, read-out: Day 11 IC50) of 0.27 µM. The IC50 ([1]; 336 h, Day 14, Cell Titer-Glo, read-out: Day 14 IC50) was 0.24 µM, the IC50 ([1]; T4, CellTiter-Glo, read-out: IC50) was 0.47 µM and the IC50 ([1]; T4, CellTiter-Glo, read-out: pIC50 (converted)) was 0.468 µM. For the same compound, the IC50 ([1]; T11, CellTiter-Glo, read-out: IC50) was 0.27 µM, the IC50 ([1]; T11, CellTiter-Glo, read-out: pIC50 (converted)) was 0.269 µM and the “% max” value ([1]; T4, CellTiter-Glo) was 99%. For the same compound, the “% max” value ([1]; T11, CellTiter-Glo) was 99%, the IC50 ([2]; OCI-AML-3, 96 h, OCI-AML-3, Day 4, Cell Titer-Glo, read-out: Day 4 IC50) was 0.19 µM and the IC50 ([2]; OCI-AML-3, 168 h, OCI-AML-3, Day 7, Cell Titer-Glo, read-out: Day 7 IC50) was 0.14 µM. For the same compound, the IC50 ([2]; OCI-AML-3, 264 h, OCI-AML-3, Day 11, Cell Titer-Glo, read-out: Day 11 IC50) was 0.1 µM, the IC50 ([2]; OCI-AML-3, 336 h, OCI-AML-3, Day 14, Cell Titer-Glo, read-out: Day 14 IC50) was 0.12 µM and the IC50 ([2]; OCI-AML-3, OCI-AML3, T4, CellTiter-Glo, read-out: IC50) was 0.19 µM. It also gave an IC50 ([2]; OCI-AML-3, OCI-AML3, T4, CellTiter-Glo, read-out: pIC50 (converted)) of 0.191 µM, an IC50 ([2]; OCI-AML-3, OCI-AML3, T11, CellTiter-Glo, read-out: IC50) of 0.1 µM and an IC50 ([2]; OCI-AML-3, OCI-AML3, T11, CellTiter-Glo, read-out: pIC50 (converted)) of 0.1 µM. For the same compound, the “% max” value ([2]; T4, CellTiter-Glo) was 99%, the “% max” value ([2]; T11, CellTiter-Glo) was 99% and the IC50 ([3]; MOLM-13, 96 h, MOLM-13, Day 4, read-out: Day 4 IC50) was 0.08 µM. It also gave an IC50 ([3]; MOLM-13, 264 h, MOLM-13, Day 11, read-out: Day 11 IC50) of 0.09 µM, an IC50 ([3]; MOLM-13, MOLM-13, T4, read-out: IC50) of 0.08 µM and an IC50 ([3]; MOLM-13, MOLM-13, T4, read-out: pIC50 (converted)) of 0.0776 µM. For the same compound, the IC50 ([3]; MOLM-13, MOLM-13, T11, read-out: IC50) was 0.09 µM, the IC50 ([3]; MOLM-13, MOLM-13, T11, read-out: pIC50 (converted)) was 0.0912 µM and the “% max” value ([3]; MOLM-13, T4) was 98%. The “% max” value ([3]; MOLM-13, T11) was 98%, the IC50 ([4]; MV4-11, 96 h, MV4-11, Day 4, read-out: Day 4 IC50) was 0.17 µM and the IC50 ([4]; MV4-11, 264 h, MV4-11, Day 11, read-out: Day 11 IC50) was 0.17 µM. It also gave an IC50 ([4]; MV4-11, MV4-11, T4, read-out: IC50) of 0.17 µM, an IC50 ([4]; MV4-11, MV4-11, T4, read-out: pIC50 (converted)) of 0.174 µM and an IC50 ([4]; MV4-11, MV4-11, T11, read-out: IC50) of 0.17 µM. For the same compound, the IC50 ([4]; MV4-11, MV4-11, T11, read-out: pIC50 (converted)) was 0.174 µM, the “% max” value ([4]; MV4-11, T4) was 90% and the “% max” value ([4]; MV4-11, T11) was 90%. The IC50 ([5]; SK-LU-1, SK-LU-1, T4, read-out: IC50) was 0.68 µM, the IC50 ([5]; SK-LU-1, SK-LU-1, T7, read-out: IC50) was 0.59 µM and the IC50 ([5]; SK-LU-1, SK-LU-1, T7, read-out: pIC50 (converted)) was 0.589 µM. The IC50 ([5]; SK-LU-1, SK-LU-1, T11, read-out: IC50) was 0.37 µM, the IC50 ([5]; SK-LU-1, SK-LU-1, T11, read-out: pIC50 (converted)) was 0.372 µM and the “% max” value ([5]; SK-LU-1, T4) was 82%. For the same compound, the “% max” value ([5]; SK-LU-1, T7) was 95%, the “% max” value ([5]; SK-LU-1, T11) was 96% and the IC50 ([6]; SK-LU-1, SK-LU-1/AMG510, T4, read-out: IC50) was 0.72 µM. For the same compound, the IC50 ([6]; SK-LU-1, SK-LU-1/AMG510, T7, read-out: IC50) was 0.45 µM, the IC50 ([6]; SK-LU-1, SK-LU-1/AMG510, T7, read-out: pIC50 (converted)) was 0.447 µM and the IC50 ([6]; SK-LU-1/AMG510, T11, read-out: IC50) was 0.39 µM. For the same compound, the IC50 ([6]; SK-LU-1/AMG510, T11, read-out: pIC50 (converted)) was 0.389 µM, the “% max” value ([6]; SK-LU-1/AMG510, T4) was 83% and the “% max” value ([6]; SK-LU-1/AMG510, T7) was 95%. For the same compound, the “% max” value ([6]; SK-LU-1/AMG510, T11) was 98%.
